In PMC11045757, “Group 3 medulloblastoma transcriptional networks collapse under domain specific EP300/CBP inhibition” (Nature Communications, 2024):
“And” between values parts separate entries of the source, which are not always exact repeats. Identical values can stand only once.

Legend:
Type in all cases: binding
PBRM1(5) = biological target: T1, PBRM1(5) (Homo sapiens, UniProt Q86U86); test: BromoScan profiling (DiscoverX); settings: read-out: Percent Control PBRM1(5)
T1 construct: PBRM1(5); purchased Eurofins DiscoverX (BROMOscan)

BRD4(2) = biological target: T2, BRD4(2) (Homo sapiens, UniProt O60885); test: BromoScan profiling (DiscoverX); settings: read-out: Percent Control BRD4(2)
T2 construct: BRD4(2); purchased Eurofins DiscoverX (BROMOscan)

EP300 bromodomain = biological target: T3, EP300 bromodomain (Homo sapiens, UniProt Q09472); test: Differential scanning fluorimetry (DSF) thermal shift
T3 construct: 6xHis (cleaved yes); host or cells: E. coli BL21 (DE3) RIL
T3 sequence (Q09472 1048-1161): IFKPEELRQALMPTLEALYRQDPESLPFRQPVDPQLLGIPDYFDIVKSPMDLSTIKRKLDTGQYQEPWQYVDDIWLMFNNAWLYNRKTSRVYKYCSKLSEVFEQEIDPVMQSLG
How it was run: (§1)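 Thermal shift of 5 μM E. coli-expressed bromodomain with 100 μM compound in 50 mM HEPES pH 7.5, 150 mM NaCl, 2 mM DTT, 2% DMSO, 5X SYPRO Orange, quadruplicate. Heated 25→95 °C at 1 °C/min, fluorescence at 610 nm; ΔTm relative to DMSO reference wells.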

BRD4-BD1 (BRD4-1) = biological target: T4, BRD4-BD1 (BRD4-1) (Homo sapiens, UniProt O60885); test: as above
T4 construct: BRD4-BD1 (residues 44-168); 6xHis (cleaved yes); host or cells: E. coli BL21 (DE3) RIL
How it was run: as §1

BRDT(2) = biological target: T5, BRDT(2) (Homo sapiens, UniProt Q58F21); test: BromoScan profiling (DiscoverX); settings: read-out: Percent Control BRDT(2)
T5 construct: BRDT(2); purchased Eurofins DiscoverX (BROMOscan)

PBRM1(2) = biological target: T6, PBRM1(2) (Homo sapiens, UniProt Q86U86); test: BromoScan profiling (DiscoverX); settings: read-out: Percent Control PBRM1(2)
T6 construct: PBRM1(2); purchased Eurofins DiscoverX (BROMOscan)

SMARCA4 = biological target: T7, SMARCA4 (Homo sapiens, UniProt P51532); test: BromoScan profiling (DiscoverX); settings: read-out: Percent Control SMARCA4
T7 construct: purchased Eurofins DiscoverX (BROMOscan)

BRD2(1) = biological target: T8, BRD2(1) (Homo sapiens, UniProt P25440); test: BromoScan profiling (DiscoverX); settings: read-out: Percent Control BRD2(1)
T8 construct: BRD2(1); purchased Eurofins DiscoverX (BROMOscan)

[1] = DSF, 5 μM protein, 100 μM compound, three independent experiments, average ± SD

T7 sequence (P51532 whole entry): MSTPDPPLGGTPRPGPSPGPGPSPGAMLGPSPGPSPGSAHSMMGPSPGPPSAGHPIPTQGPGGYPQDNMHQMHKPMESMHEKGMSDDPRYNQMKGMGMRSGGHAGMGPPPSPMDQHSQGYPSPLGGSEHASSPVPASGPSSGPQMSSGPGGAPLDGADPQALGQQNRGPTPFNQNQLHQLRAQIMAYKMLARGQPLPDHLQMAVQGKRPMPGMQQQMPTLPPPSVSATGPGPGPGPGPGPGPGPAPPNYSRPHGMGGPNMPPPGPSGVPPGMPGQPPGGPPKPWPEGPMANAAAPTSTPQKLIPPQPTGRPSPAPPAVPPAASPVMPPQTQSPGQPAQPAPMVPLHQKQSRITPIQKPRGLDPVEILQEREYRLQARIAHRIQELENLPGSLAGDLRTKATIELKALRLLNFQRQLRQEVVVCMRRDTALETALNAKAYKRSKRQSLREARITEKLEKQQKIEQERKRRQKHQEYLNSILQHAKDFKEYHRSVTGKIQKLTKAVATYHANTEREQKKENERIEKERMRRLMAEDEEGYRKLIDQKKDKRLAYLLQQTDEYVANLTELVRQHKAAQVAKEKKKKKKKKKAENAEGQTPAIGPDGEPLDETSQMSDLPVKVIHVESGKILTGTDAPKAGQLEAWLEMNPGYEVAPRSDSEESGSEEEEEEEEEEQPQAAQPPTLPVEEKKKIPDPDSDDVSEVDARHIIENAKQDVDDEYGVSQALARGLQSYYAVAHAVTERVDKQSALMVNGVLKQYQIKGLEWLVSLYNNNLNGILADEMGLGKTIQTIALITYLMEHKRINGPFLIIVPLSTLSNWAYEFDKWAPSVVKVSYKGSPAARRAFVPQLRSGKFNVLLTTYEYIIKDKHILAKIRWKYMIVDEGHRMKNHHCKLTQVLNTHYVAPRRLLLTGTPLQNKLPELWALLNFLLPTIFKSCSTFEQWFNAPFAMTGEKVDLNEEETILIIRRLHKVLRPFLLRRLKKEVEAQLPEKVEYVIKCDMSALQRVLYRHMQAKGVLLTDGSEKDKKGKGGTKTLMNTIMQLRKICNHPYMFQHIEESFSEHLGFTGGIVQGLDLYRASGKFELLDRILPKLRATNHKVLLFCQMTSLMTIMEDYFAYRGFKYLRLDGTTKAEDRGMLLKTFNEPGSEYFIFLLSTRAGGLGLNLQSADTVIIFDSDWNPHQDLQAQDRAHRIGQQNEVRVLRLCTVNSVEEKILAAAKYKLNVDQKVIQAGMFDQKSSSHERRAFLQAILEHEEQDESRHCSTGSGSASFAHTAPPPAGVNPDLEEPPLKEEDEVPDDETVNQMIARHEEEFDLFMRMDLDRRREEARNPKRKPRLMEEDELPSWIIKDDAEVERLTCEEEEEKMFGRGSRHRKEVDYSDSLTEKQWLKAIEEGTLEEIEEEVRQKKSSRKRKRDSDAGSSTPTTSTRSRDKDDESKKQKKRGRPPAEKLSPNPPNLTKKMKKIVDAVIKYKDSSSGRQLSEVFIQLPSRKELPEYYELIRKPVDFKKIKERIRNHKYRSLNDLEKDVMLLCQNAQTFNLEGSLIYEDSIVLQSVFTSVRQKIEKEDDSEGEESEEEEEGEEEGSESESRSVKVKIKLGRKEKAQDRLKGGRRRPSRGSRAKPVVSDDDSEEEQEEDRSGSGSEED
T6 sequence (Q86U86 178-291 limits assumed): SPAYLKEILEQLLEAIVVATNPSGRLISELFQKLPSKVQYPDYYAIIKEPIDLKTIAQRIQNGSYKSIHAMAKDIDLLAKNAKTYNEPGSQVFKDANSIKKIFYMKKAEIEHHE
T8 sequence (P25440 71-194 limits assumed): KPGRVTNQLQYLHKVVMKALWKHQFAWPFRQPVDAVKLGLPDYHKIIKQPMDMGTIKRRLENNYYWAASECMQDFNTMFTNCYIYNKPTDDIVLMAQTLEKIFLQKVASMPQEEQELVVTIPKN
T1 sequence (Q86U86 645-766 limits assumed): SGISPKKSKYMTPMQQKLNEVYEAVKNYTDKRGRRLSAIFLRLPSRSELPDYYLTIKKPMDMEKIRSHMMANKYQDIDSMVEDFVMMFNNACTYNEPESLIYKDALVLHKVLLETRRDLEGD

SMILES: CO[C@H]1CC[C@H](n2c([C@@H]3CCCC(=O)N3c3ccc(F)c(F)c3)nc3cc(-c4c(C)noc4C)ccc32)CC1 [CCS1477]
- remaining binding at 1 µM (PBRM1(5)): 71%
- remaining binding at 1 µM (BRD4(2)): 75%
- ΔTm (°C) (EP300 bromodomain; DSF thermal shift vs DMSO, EP300 bromodomain, Fig 2B): 18.3 °C
- ∆Tm (°C) EP300 (EP300 bromodomain; [1]): 18.3 ± 0.2 °C
- ΔTm (°C) EP300 (EP300 bromodomain; Figure 3B, DSF, EP300): 18.3 °C
- ΔTm (°C) (BRD4-BD1 (BRD4-1); DSF thermal shift vs DMSO, BRD4-BD1, Fig 2B): 6.7 °C
- ∆Tm (°C) BRD4-1 (BRD4-BD1 (BRD4-1); [1]): 6.7 ± 0.16 °C and 6.7 °C
- remaining binding at 1 µM (BRDT(2)): 76%
- remaining binding at 1 µM (PBRM1(2)): 78%
- remaining binding at 1 µM (SMARCA4): 61%
- remaining binding at 1 µM (BRD2(1)): 3.5%
